# Earlier results in patent publication US6403120B1 (Wyeth, priority 1996, dated 2002).
# Details: plural daily dosing regimen
smiles,measurement,value
"COc1ccc(C(CN(C)C)C2(O)CCCCC2)cc1.Cl (centres unmarked) [venlafaxine hydrochloride, 1-[2-(dimethylamino)-1-(4methoxyphenyl)ethyl]cyclohexanol hydrochloride]",patients experiencing nausea,about forty five
same,patients with vomiting,about seventeen
